Results reported in US9067898B1, “Isothiazole derivatives as GPR120 agonists for the treatment of type II diabetes” (Janssen Pharmaceutica NV, priority 2014, dated 2015).

How the values were obtained:
Human GPR120 short form = biological target: T1, Human GPR120 short form (Homo sapiens, UniProt Q5NUL3); assay: Human GPR120 calcium flux assay (FLIPR), Procedure Calcium A; format: cell-based; details: HEK-293 cells expressing human GPR120 short form, 2500 cells/well; read-out: GPR120 Ca2+ Assay A EC50
T1 construct: expressed in transfected cells
T1 sequence (Q5NUL3 1-361): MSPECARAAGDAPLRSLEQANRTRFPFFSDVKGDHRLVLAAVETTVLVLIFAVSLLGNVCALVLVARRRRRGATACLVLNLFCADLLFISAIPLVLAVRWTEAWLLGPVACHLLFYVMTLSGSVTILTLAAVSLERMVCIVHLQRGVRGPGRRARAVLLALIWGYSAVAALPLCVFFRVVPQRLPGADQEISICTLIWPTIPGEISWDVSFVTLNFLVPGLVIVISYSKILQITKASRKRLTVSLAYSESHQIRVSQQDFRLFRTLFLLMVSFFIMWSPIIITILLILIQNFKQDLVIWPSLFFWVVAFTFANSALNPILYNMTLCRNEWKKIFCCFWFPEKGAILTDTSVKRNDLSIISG
Method in brief: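 HEK293 cells stably expressing the short isoform (NM_001195755.1), 2500/well, starved 1 h, then loaded with Fluo-4 NW plus probenecid (30 min 37 °C, 15 min RT). Compound solutions 0.012–100 μM, 0.2% DMSO final; FLIPR read 300 s after addition. EC50 from Fmax−Fmin fitted to variable-slope sigmoid (Hill <2).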

[1] = biological target: T2, long form of human GPR120 (Homo sapiens, UniProt Q5NUL3); assay: Human GPR120 DiscoveRx PathHunter Beta-Arrestin assay, Procedure β-arrestin A; format: cell-based; details: PathHunter CHO-K1 GPR120 β-Arrestin cell line, 3000 cells per well, read-out: hGPR120 β-arrestin A EC50
T2 construct: host or cells: PathHunter CHO-K1 GPR120 β-Arrestin Cell Line
T2 sequence (Q5NUL3 1-377 isoform Q5NUL3-1): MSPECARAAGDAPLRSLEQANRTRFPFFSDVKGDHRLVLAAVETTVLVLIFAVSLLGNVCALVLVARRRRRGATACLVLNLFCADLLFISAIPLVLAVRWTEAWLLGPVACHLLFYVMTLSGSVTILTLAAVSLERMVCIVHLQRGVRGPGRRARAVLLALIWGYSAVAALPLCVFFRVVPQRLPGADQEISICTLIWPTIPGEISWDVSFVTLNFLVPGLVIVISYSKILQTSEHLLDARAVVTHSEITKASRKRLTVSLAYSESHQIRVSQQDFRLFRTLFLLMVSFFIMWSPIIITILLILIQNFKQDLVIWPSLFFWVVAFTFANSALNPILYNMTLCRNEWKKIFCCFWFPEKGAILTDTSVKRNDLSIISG
T2 sequence (P32121 whole entry partner): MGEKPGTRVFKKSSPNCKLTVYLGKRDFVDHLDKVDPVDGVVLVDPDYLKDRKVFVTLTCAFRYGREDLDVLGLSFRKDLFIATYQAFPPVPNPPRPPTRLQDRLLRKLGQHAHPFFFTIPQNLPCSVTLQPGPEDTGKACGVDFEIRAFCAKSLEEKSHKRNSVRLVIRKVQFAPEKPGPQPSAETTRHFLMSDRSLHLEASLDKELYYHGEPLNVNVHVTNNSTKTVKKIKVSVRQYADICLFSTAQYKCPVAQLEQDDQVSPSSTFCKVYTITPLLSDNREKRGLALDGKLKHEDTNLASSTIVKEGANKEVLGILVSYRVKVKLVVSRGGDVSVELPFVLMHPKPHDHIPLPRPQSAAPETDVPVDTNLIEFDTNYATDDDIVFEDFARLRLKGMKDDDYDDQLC
Method in brief: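 PathHunter CHO-K1 β-arrestin cells expressed long-form GPR120 (Procedure A, 3000 cells/well) or short-form GPR120 (Procedure B, 5000 cells/well). Compounds were serially diluted from 25 µM and incubated 90 min at 37 °C in HBSS/20 mM HEPES/0.1% BSA, pH 7.4. Luminescence was read after 60 min detection at RT; EC50 comes from % activity versus positive control, Hill slope fixed at 1.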

Row | Compound | EC50 (Human GPR120 short form) | EC50 [1]
1 | Cc1c(CCC(=O)O)cc(F)c(OCc2c(-c3ccc(Cl)cc3)nsc2C(F)(F)F)c1F [Cpd 113, 3-(4-((3-(4-chlorophenyl)-5-(trifluoromethyl)isothiazol-4-yl)methoxy)-3,5-difluoro-2-methylphenyl)propanoic acid] | 99 nM | 71 nM
2 | CCc1ccc(-c2sc(C)c(C(F)(F)F)c2COc2c(F)cc(CCCO)cc2F)cc1 [Cpd 32, 3-(4-[[2-(4-ethylphenyl)-5-methyl-4-(trifluoromethyl)thiophen-3-yl]methoxy]-3,5-difluorophenyl)propan-1-ol] | 48 nM | 31 nM
3 | O=C(O)CCc1cc(F)c(OCc2c(-c3ccc4c(c3)OCO4)nsc2C(F)(F)F)c(F)c1 [Cpd 87, 3-(4-[[3-(2H-1,3-benzodioxol-5-yl)-5-(trifluoromethyl)-1,2-thiazol-4-yl]methoxy]-3,5-difluorophenyl)propanoic acid] | 62 nM | 88 nM
4 | OCCCc1cc(F)c(OCc2c(-c3ccc(Cl)cc3)csc2C(F)(F)F)c(F)c1F [Cpd 56, 3-(4-((4-(4-chlorophenyl)-2-(trifluoromethyl)thiophen-3-yl)methoxy)-2,3,5-trifluorophenyl)propan-1-ol] | 237 nM | 108 nM
5 | CCc1ccc(-c2cscc2COc2ccc(CCC(=O)O)c(F)c2F)cc1 [Cpd 43, 3-(4-((4-(4-ethylphenyl)thiophen-3-yl)methoxy)-2,3-difluorophenyl)propanoic acid] | 147 nM | 591 nM
6 | OCCCc1cc(F)c(OCc2sc(Cl)cc2-c2ccc(Cl)cc2)c(F)c1 [Cpd 19, 3-(4-[[5-chloro-3-(4-chlorophenyl)thiophen-2-yl]methoxy]-3,5-difluorophenyl)propan-1-ol] | 634 nM | 108 nM
7 | CCc1ccc(-c2nsc(C(F)(F)F)c2COc2ccc(CCC(=O)O)c(C)c2C)cc1 [Cpd 127, 3-(4-((3-(4-ethylphenyl)-5-(trifluoromethyl)isothiazol-4-yl)methoxy)-2,3-dimethylphenyl)propanoic acid] | 122 nM | 178 nM
8 | COc1ccc(-c2csc(C(F)(F)F)c2COc2c(F)cc(CCCO)cc2F)cc1 [Cpd 45, 3-(3,5-difluoro-4-((4-(4-methoxyphenyl)-2-(trifluoromethyl)thiophen-3-yl)methoxy)phenyl)propan-1-ol] | 154 nM | 123 nM
9 | COc1ccc(-c2csc(C(F)(F)F)c2COc2c(F)cc(CCC(=O)O)cc2F)cn1 [Cpd 42, 3-(3,5-difluoro-4-((4-(6-methoxypyridin-3-yl)-2-(trifluoromethyl)thiophen-3-yl)methoxy)phenyl)propanoic acid] | 143 nM | 445 nM
10 | Cc1ccc(-c2snc(C)c2COc2c(F)cc(CCC(=O)O)cc2F)c(F)c1 [Cpd 84, 3-(3,5-difluoro-4-[[5-(2-fluoro-4-methylphenyl)-3-methyl-1,2-thiazol-4-yl]methoxy]phenyl) propanoic acid] | 56 nM | 119 nM
11 | O=C(O)CCc1cc(F)c(OCc2c(-c3ccc4c(c3)CCO4)csc2C(F)(F)F)c(F)c1 [Cpd 51, 3-(4-((4-(2,3-dihydrobenzofuran-5-yl)-2-(trifluoromethyl)thiophen-3-yl)methoxy)-3,5-difluorophenyl)propanoic acid] | 172 nM | 213 nM
12 | CCc1ccc(-c2cc(Cl)sc2COc2ccc(CCC(=O)O)c(F)c2F)cc1 [Cpd 11, 3-(4-[[5-chloro-3-(4-ethylphenyl)thiophen-2-yl]methoxy]-2,3-difluorophenyl)propanoic acid] | 126 nM | 222 nM
13 | CCc1ccc(-c2nsc(C(F)(F)F)c2COc2c(F)cc(CC(C)CO)cc2F)cc1 (centres unmarked) [Cpd 216, 3-(4-[[3-(4-ethylphenyl)-5-(trifluoromethyl)-1,2-thiazol-4-yl]methoxy]-3,5-difluorophenyl)-2-methylpropan-1-ol] | 674 nM | 466 nM
14 | CCc1ccc(-c2cc(Cl)sc2COc2ccc(CCC(=O)O)c(C)c2C)cc1 [Cpd 5, 3-(4-[[5-chloro-3-(4-ethylphenyl)thiophen-2-yl]methoxy]-2,3-dimethylphenyl)propanoic acid] | 61 nM | 191 nM
15 | COc1ccc(-c2csc(C(F)(F)F)c2COc2c(F)cc(CCCO)cc2F)cn1 [Cpd 38, 3-(3,5-difluoro-4-((4-(6-methoxypyridin-3-yl)-2-(trifluoromethyl)thiophen-3-yl)methoxy)phenyl)propan-1-61] | 101 nM | 71 nM
16 | CCc1ccc(-c2cc(Cl)sc2COc2c(F)cc(CCC(=O)O)cc2F)cc1 [Cpd 8, 3-(4-((5-chloro-3-(4-ethylphenyl)thiophen-2-yl)methoxy)-3,5-difluorophenyl)propanoic acid] | 114 nM | 167 nM
17 | 3-(4-[[2-(4-chlorophenyl)-5-methyl-4-(trifluoromethyl)thiophen-3-yl]methoxy]-3,5-difluorophenyl)propanoic acid [Cpd 40] | 129 nM | 650 nM
18 | O=C(O)CCc1cc(F)c(OCc2c(C3=CCCC3)csc2C(F)(F)F)c(F)c1 [Cpd 31, 3-(4-((4-(cyclopent-1-en-1-yl)-2-(trifluoromethyl)thiophen-3-yl)methoxy)-3,5-difluorophenyl)propanoic acid] | 46 nM | 503 nM
19 | CCc1ccc(-c2nsc(C(F)(F)F)c2COc2c(F)cc(CCCO)cc2F)cc1 [Cpd 135, 3-(4-((3-(4-ethylphenyl)-5-(trifluoromethyl)isothiazol-4-yl)methoxy)-3,5-difluorophenyl)propan-1-61] | 134 nM | 58 nM
20 | CCc1ccc(-c2cc(Cl)sc2COc2c(F)cc(CCCO)cc2F)cc1 [Cpd 9, 3-(4-[[5-chloro-3-(4-ethylphenyl)thiophen-2-yl]methoxy]-3,5-difluorophenyl)propan-1-ol] | 117 nM | 203 nM
21 | Cc1c(CCC(=O)O)ccc(OCc2c(-c3ccc(C4CC4)cc3)nsc2C(F)(F)F)c1C [Cpd 190, 3-(4-((3-(4-cyclopropylphenyl)-5-(trifluoromethyl)isothiazol-4-yl)methoxy)-2,3-dimethylphenyl)propanoic acid] | 314 nM | 379 nM
22 | O=C(O)CCc1ccc(OCc2c(-c3ccc(Cl)cc3)nsc2C(F)(F)F)c(F)c1F [Cpd 106, 3-(4-[[3-(4-chlorophenyl)-5-(trifluoromethyl)-1,2-thiazol-4-yl]methoxy]-2,3-difluorophenyl)propanoic acid] | 86 nM | 98 nM
23 | OCCCc1cc(F)c(OCc2c(-c3ccc(Cl)cc3)csc2C(F)(F)F)c(F)c1 [Cpd 46, 3-(4-[[4-(4-chlorophenyl)-2-(trifluoromethyl)thiophen-3-yl]methoxy]-3,5-difluorophenyl)propan-1-ol] | 165 nM | 125 nM
24 | Cc1snc(-c2ccc(Cl)cc2)c1COc1ccc(CCC(=O)O)c(F)c1F [Cpd 119, 3-(4-((3-(4-chlorophenyl)-5-methylisothiazol-4-yl)methoxy)-2,3-difluorophenyl)propanoic acid] | 106 nM | 128 nM
25 | Cc1c(CCC(=O)O)ccc(OCc2csnc2-c2ccc(Cl)cc2)c1C [Cpd 166, 3-(4-((3-(4-chlorophenyl)isothiazol-4-yl)methoxy)-2,3-dimethylphenyl)propanoic acid] | 217 nM | 1340 nM
26 | CCc1ccc(-c2sccc2COc2ccc(CCC(=O)O)c(F)c2F)cc1 [Cpd 48, 3-(4-((2-(4-ethylphenyl)thiophen-3-yl)methoxy)-2,3-difluorophenyl)propanoic acid] | 168 nM | 236 nM
27 | O=C(O)/C=C/c1ccc(OCc2c(Cl)nsc2-c2ccc(Cl)cc2)c(F)c1F [Cpd 185, (E)-3-(4-((3-chloro-5-(4-chlorophenyl)isothiazol-4-yl)methoxy)-2,3-difluorophenyl)acrylic acid] | 301 nM | 324 nM
28 | Cc1c(CCC(=O)O)ccc(OCc2c(Cl)nsc2-c2ccc(Cl)cc2F)c1C [Cpd 122] | 109 nM | 1290 nM
